Measured values: patent publication US20250101041A1, “POSITIVE ALLOSTERIC MODULATORS OF THE MUSCARINIC ACETYLCHOLINE RECEPTOR M4” (Vanderbilt University, priority 2022, published 2025)

Key:
human mAChR M4 = biological target: T1, human mAChR M4 (Homo sapiens, UniProt P08173); experiment: mAChR M4 cell-based functional assay: calcium mobilization (Fluo-4, FDSS), potentiation of EC20 acetylcholine response in hM4-Gqi5 CHO-K1 cells; details: CHO-K1, % ACh maximum at 30 μM; human M4
T1 construct: expressed in transfected cells; host or cells: CHO-K1 (American Type Culture Collection), stably expressing hM4 and Gqi5
T1 sequence (P08173 1-479): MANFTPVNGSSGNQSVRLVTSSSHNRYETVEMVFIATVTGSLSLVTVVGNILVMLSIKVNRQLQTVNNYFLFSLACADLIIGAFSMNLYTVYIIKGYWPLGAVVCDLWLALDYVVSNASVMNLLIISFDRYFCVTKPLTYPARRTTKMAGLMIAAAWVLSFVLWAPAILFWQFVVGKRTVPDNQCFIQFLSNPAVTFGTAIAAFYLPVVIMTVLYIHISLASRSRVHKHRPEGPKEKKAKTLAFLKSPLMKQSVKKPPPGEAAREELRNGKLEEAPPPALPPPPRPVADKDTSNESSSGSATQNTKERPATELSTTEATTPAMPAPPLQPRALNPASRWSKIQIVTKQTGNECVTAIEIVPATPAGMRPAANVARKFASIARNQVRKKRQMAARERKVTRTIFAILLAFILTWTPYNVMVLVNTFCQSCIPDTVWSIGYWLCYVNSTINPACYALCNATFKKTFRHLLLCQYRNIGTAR
Method in brief: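 CHO-K1 cells stably co-expressing human M4 and chimeric Gqi5, loaded with Fluo-4 AM (50 min, 37 °C). Compounds in 11-point 1:3 series added first; EC20 acetylcholine added at 144 s and again at 230 s. Calcium read on FDSS at 1 Hz; EC50 and Emax from four-parameter logistic fit of potentiated EC20 response.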

[1] = patients treated with AChE inhibitors such as tacrine; cited from earlier work
[2] = Alzheimer's disease patients; cited from earlier work
[3] = cited from earlier work

Cc1c(N2CCc3ncc(P(C)(C)=O)cc3C2)nn2c(=O)ccnc2c1C [Compound 3-5, 7-(3-(Dimethylphosphoryl)-7,8-dihydro-1,6-naphthyridin-6(5H)-yl)-8,9-dimethyl-4H-pyrimido[1,2-b]pyridazin-4-one]
Emax at 30 µM (human mAChR M4): 77%

Nc1c2c(nc3ccccc13)CCCC2 [tacrine]
patients with elevated liver transaminases (hepatotoxicity) [1]: about 30%

CCCCCCOc1nsnc1C1=CCCN(C)C1 [xanomeline]
psychotic behavioral symptoms such as delusions, suspiciousness, vocal outbursts, and hallucinations [2]: reduce psychotic behavioral symptoms
treatment induced side effects [2]: gastrointestinal effects
catalepsy ([3]; animal models): without causing catalepsy
activity in animal models with similar profiles to known antipsychotic drugs [3]: active
